Test results taken from ChEMBL document CHEMBL1201861, “Genomics of Drug Sensitity in Cancer screening data, Wellcome Trust Sanger Institute”.

What was measured:
Assay in all cases: cells
COR-L88 = format: functional, cell-based, Homo sapiens; settings: Homo sapiens, COR-L88
Description: SANGER: Inhibition of human COR-L88 cell growth in a cell viability assay.

MFM-223 = format: functional, cell-based, Homo sapiens; settings: Homo sapiens, MFM-223
Description: SANGER: Inhibition of human MFM-223 cell growth in a cell viability assay.

DJM-1 = format: functional, cell-based, Homo sapiens; settings: Homo sapiens, DJM-1
Description: SANGER: Inhibition of human DJM-1 cell growth in a cell viability assay.

LOX IMVI = format: functional, cell-based, Homo sapiens; settings: Homo sapiens, LOX IMVI
Description: SANGER: Inhibition of human LOXIMVI cell growth in a cell viability assay.

RCC10RGB = format: functional, cell-based, Homo sapiens; settings: Homo sapiens, RCC10RGB
Description: SANGER: Inhibition of human RCC10RGB cell growth in a cell viability assay.

LAN-6 = format: functional, cell-based, Homo sapiens; settings: Homo sapiens, LAN-6
Description: SANGER: Inhibition of human LAN-6 cell growth in a cell viability assay.

NCI-H720 = format: functional, cell-based, Homo sapiens; settings: Homo sapiens, NCI-H720
Description: SANGER: Inhibition of human NCI-H720 cell growth in a cell viability assay.

MEG-01 = format: functional, cell-based, Homo sapiens; settings: Homo sapiens, MEG-01
Description: SANGER: Inhibition of human MEG-01 cell growth in a cell viability assay.

KP-N-YS = format: functional, cell-based, Homo sapiens; settings: Homo sapiens, KP-N-YS
Description: SANGER: Inhibition of human KP-N-YS cell growth in a cell viability assay.

BE-13 = format: functional, cell-based, Homo sapiens; settings: Homo sapiens, BE-13
Description: SANGER: Inhibition of human BE-13 cell growth in a cell viability assay.

MOLT-16 = format: functional, cell-based, Homo sapiens; settings: Homo sapiens, MOLT-16
Description: SANGER: Inhibition of human MOLT-16 cell growth in a cell viability assay.

SCC-15 = format: functional, cell-based, Homo sapiens; settings: Homo sapiens, SCC-15
Description: SANGER: Inhibition of human SCC-15 cell growth in a cell viability assay.

NKM-1 = format: functional, cell-based, Homo sapiens; settings: Homo sapiens, NKM-1
Description: SANGER: Inhibition of human NKM-1 cell growth in a cell viability assay.

BV-173 = format: functional, cell-based, Homo sapiens; settings: Homo sapiens, BV-173
Description: SANGER: Inhibition of human BV-173 cell growth in a cell viability assay.

SNU1 = format: functional, cell-based, Homo sapiens; settings: Homo sapiens, SNU1
Description: SANGER: Inhibition of human NCI-SNU-1 cell growth in a cell viability assay.

LB771-HNC = format: functional, cell-based; settings: Homo sapiens
Description: SANGER: Inhibition of human LB771-HNC cell growth in a cell viability assay.

GI-1 = format: functional, cell-based, Homo sapiens; settings: Homo sapiens, GI-1
Description: SANGER: Inhibition of human GI-1 cell growth in a cell viability assay.

HCC2218 = format: functional, cell-based, Homo sapiens; settings: Homo sapiens, HCC2218
Description: SANGER: Inhibition of human HCC2218 cell growth in a cell viability assay.

no-11 = format: functional, cell-based, Homo sapiens; settings: Homo sapiens
Description: SANGER: Inhibition of human no-11 cell growth in a cell viability assay.

DB = format: functional, cell-based, Homo sapiens; settings: Homo sapiens, DB
Description: SANGER: Inhibition of human DB cell growth in a cell viability assay.

MZ2-MEL = format: functional, cell-based, Homo sapiens; settings: Homo sapiens, MZ2-MEL
Description: SANGER: Inhibition of human MZ2-MEL cell growth in a cell viability assay.

TE-1 = format: functional, cell-based, Homo sapiens; settings: Homo sapiens, TE-1
Description: SANGER: Inhibition of human TE-1 cell growth in a cell viability assay.

IST-SL1 = format: functional, cell-based, Homo sapiens; settings: Homo sapiens, IST-SL1
Description: SANGER: Inhibition of human IST-SL1 cell growth in a cell viability assay.

EW-3 = format: functional, cell-based, Homo sapiens; settings: Homo sapiens, EW-3
Description: SANGER: Inhibition of human EW-3 cell growth in a cell viability assay.

ML-2 = format: functional, cell-based, Homo sapiens; settings: Homo sapiens, ML-2
Description: SANGER: Inhibition of human ML-2 cell growth in a cell viability assay.

TE-6 = format: functional, cell-based, Homo sapiens; settings: Homo sapiens, TE-6
Description: SANGER: Inhibition of human TE-6 cell growth in a cell viability assay.

NCI-H1395 = format: functional, cell-based, Homo sapiens; settings: Homo sapiens, NCI-H1395
Description: SANGER: Inhibition of human NCI-H1395 cell growth in a cell viability assay.

COLO-829 = format: functional, cell-based, Homo sapiens; settings: Homo sapiens, COLO-829
Description: SANGER: Inhibition of human COLO-829 cell growth in a cell viability assay.

DMS-114 = format: functional, cell-based, Homo sapiens; settings: Homo sapiens, DMS-114
U-87 MG = format: functional, cell-based, Homo sapiens, U-87MG ATCC; settings: Homo sapiens, U-87 MG
Description: SANGER: Inhibition of human U-87-MG cell growth in a cell viability assay.

OMC-1 = format: functional, cell-based, Homo sapiens; settings: Homo sapiens, OMC-1
Description: SANGER: Inhibition of human OMC-1 cell growth in a cell viability assay.

SK-UT-1 = format: functional, cell-based, Homo sapiens; settings: Homo sapiens, SK-UT-1
Description: SANGER: Inhibition of human SK-UT-1 cell growth in a cell viability assay.

OCI-AML2 = format: functional, cell-based, Homo sapiens; settings: Homo sapiens, OCI-AML2
Description: SANGER: Inhibition of human OCI-AML2 cell growth in a cell viability assay.

SW872 = format: functional, cell-based, Homo sapiens; settings: Homo sapiens, SW872
Description: SANGER: Inhibition of human SW872 cell growth in a cell viability assay.

MV4-11 = format: functional, cell-based, Homo sapiens, MV-4-11; settings: Homo sapiens, MV4-11
Description: SANGER: Inhibition of human MV-4-11 cell growth in a cell viability assay.

HAL-01 = format: functional, cell-based, Homo sapiens; settings: Homo sapiens, HAL-01
Description: SANGER: Inhibition of human HAL-01 cell growth in a cell viability assay.

A704 = format: functional, cell-based; settings: Homo sapiens
Description: SANGER: Inhibition of human A704 cell growth in a cell viability assay.

L-363 = format: functional, cell-based, Homo sapiens; settings: Homo sapiens, L-363
Description: SANGER: Inhibition of human L-363 cell growth in a cell viability assay.

BT-474 = format: functional, cell-based, Homo sapiens; settings: Homo sapiens, BT-474
Description: SANGER: Inhibition of human BT-474 cell growth in a cell viability assay.

SK-NEP-1 = format: functional, cell-based, Homo sapiens; settings: Homo sapiens, SK-NEP-1
Description: SANGER: Inhibition of human SK-NEP-1 cell growth in a cell viability assay.

KU812 cell line = format: functional, cell-based, Homo sapiens; settings: Homo sapiens, KU812
Description: SANGER: Inhibition of human KU812 cell growth in a cell viability assay.

BB65-RCC = format: functional, cell-based, Homo sapiens; settings: Homo sapiens, BB65-RCC
Description: SANGER: Inhibition of human BB65-RCC cell growth in a cell viability assay.

J-RT3-T3-5 = format: functional, cell-based, Homo sapiens; settings: Homo sapiens, J-RT3-T3-5
Description: SANGER: Inhibition of human J-RT3-T3-5 cell growth in a cell viability assay.

EW-13 = format: functional, cell-based, Homo sapiens; settings: Homo sapiens, EW-13; read-out: IC50
Description: SANGER: Inhibition of human EW-13 cell growth in a cell viability assay.

D-502MG = format: functional, cell-based, Homo sapiens; settings: Homo sapiens, D-502MG
Description: SANGER: Inhibition of human D-502MG cell growth in a cell viability assay.

KE-37 = format: functional, cell-based, Homo sapiens; settings: Homo sapiens, KE-37
Description: SANGER: Inhibition of human KE-37 cell growth in a cell viability assay.

JAR = format: functional, cell-based, Homo sapiens; settings: Homo sapiens, JAR
Description: SANGER: Inhibition of human JAR cell growth in a cell viability assay.

ETK-1 = format: functional, cell-based, Homo sapiens; settings: Homo sapiens, ETK-1
Description: SANGER: Inhibition of human ETK-1 cell growth in a cell viability assay.

HT = format: functional, cell-based, Homo sapiens; settings: Homo sapiens, HT
Description: SANGER: Inhibition of human HT cell growth in a cell viability assay.

## COc1ccc(-c2cc3nccn3c(Nc3ncccc3C(N)=O)n2)cc1OC
COR-L88
  IC50: > 8 µM
MFM-223
  IC50: > 8 µM
DJM-1
  IC50: > 8 µM
LOX IMVI
  IC50: 2.66 µM
RCC10RGB
  IC50: > 8 µM
LAN-6
  IC50: > 8 µM
NCI-H720
  IC50: > 8 µM
MEG-01
  IC50: 5.28 µM
KP-N-YS
  IC50: 7 µM
BE-13
  IC50: 2.7 µM
MOLT-16
  IC50: 0.571 µM
SCC-15
  IC50: > 8 µM
NKM-1
  IC50: 1.06 µM
BV-173
  IC50: > 8 µM
SNU1
  IC50: 1.99 µM
LB771-HNC
  IC50: > 8 µM
GI-1
  IC50: 5.41 µM
HCC2218
  IC50: > 8 µM
no-11
  IC50: > 8 µM
DB
  IC50: 6.64 µM
MZ2-MEL
  IC50: 3.48 µM
TE-1
  IC50: > 8 µM
IST-SL1
  IC50: 7.98 µM
EW-3
  IC50: 4.93 µM
ML-2
  IC50: > 8 µM
TE-6
  IC50: 6.97 µM
NCI-H1395
  IC50: > 8 µM
COLO-829
  IC50: > 8 µM
DMS-114
  IC50: > 8 µM
U-87 MG
  IC50: > 8 µM
OMC-1
  IC50: > 8 µM
SK-UT-1
  IC50: 6.24 µM
OCI-AML2
  IC50: 4.48 µM
SW872
  IC50: 1.18 µM
MV4-11
  IC50: < 0.0312 µM
HAL-01
  IC50: > 8 µM
A704
  IC50: > 8 µM
L-363
  IC50: 2.93 µM
BT-474
  IC50: > 8 µM
SK-NEP-1
  IC50: 4.53 µM
KU812 cell line
  IC50: 4.24 µM
BB65-RCC
  IC50: 5.13 µM
J-RT3-T3-5
  IC50: 6.24 µM
EW-13
  IC50: 1.47 µM
D-502MG
  IC50: > 8 µM
KE-37
  IC50: 0.835 µM
JAR
  IC50: > 8 µM
ETK-1
  IC50: 5.21 µM
HT
  IC50: 6.22 µM

## COC(=O)[C@H](CCSC)NC(=O)c1ccc(NC[C@@H](N)CS)cc1-c1ccccc1
COR-L88
  IC50: > 1.02 µM
MFM-223
  IC50: > 1.02 µM
DJM-1
  IC50: > 1.02 µM
LOX IMVI
  IC50: > 1.02 µM
RCC10RGB
  IC50: > 1.02 µM
LAN-6
  IC50: > 1.02 µM
NCI-H720
  IC50: > 1.02 µM
MEG-01
  IC50: > 1.02 µM
KP-N-YS
  IC50: > 1.02 µM
BE-13
  IC50: > 1.02 µM
MOLT-16
  IC50: > 1.02 µM
SCC-15
  IC50: > 1.02 µM
NKM-1
  IC50: > 1.02 µM
BV-173
  IC50: > 1.02 µM
SNU1
  IC50: > 1.02 µM
LB771-HNC
  IC50: > 1.02 µM
GI-1
  IC50: > 1.02 µM
HCC2218
  IC50: > 1.02 µM
no-11
  IC50: > 1.02 µM
DB
  IC50: > 1.02 µM
MZ2-MEL
  IC50: > 1.02 µM
TE-1
  IC50: > 1.02 µM
IST-SL1
  IC50: > 1.02 µM
EW-3
  IC50: > 1.02 µM
ML-2
  IC50: > 1.02 µM
TE-6
  IC50: > 1.02 µM
NCI-H1395
  IC50: > 1.02 µM
COLO-829
  IC50: > 1.02 µM
DMS-114
  IC50: > 1.02 µM
U-87 MG
  IC50: > 1.02 µM
OMC-1
  IC50: > 1.02 µM
SK-UT-1
  IC50: > 1.02 µM
OCI-AML2
  IC50: > 1.02 µM
SW872
  IC50: > 1.02 µM
MV4-11
  IC50: > 1.02 µM
HAL-01
  IC50: > 1.02 µM
A704
  IC50: > 1.02 µM
L-363
  IC50: > 1.02 µM
BT-474
  IC50: > 1.02 µM
SK-NEP-1
  IC50: > 1.02 µM
KU812 cell line
  IC50: > 1.02 µM
BB65-RCC
  IC50: > 1.02 µM
J-RT3-T3-5
  IC50: > 1.02 µM
EW-13
  IC50: > 1.02 µM
D-502MG
  IC50: > 1.02 µM
KE-37
  IC50: > 1.02 µM
JAR
  IC50: > 1.02 µM
ETK-1
  IC50: > 1.02 µM
HT
  IC50: > 1.02 µM

## OC[C@H](Cc1ccccc1)Nc1nc(Oc2ccc3c(c2)CCC3)nc2c1ncn2Cc1ccc(-c2ccccc2)cc1
COR-L88
  IC50: > 10.2 µM
MFM-223
  IC50: > 10.2 µM
DJM-1
  IC50: > 10.2 µM
LOX IMVI
  IC50: > 10.2 µM
RCC10RGB
  IC50: > 10.2 µM
LAN-6
  IC50: > 10.2 µM
NCI-H720
  IC50: > 10.2 µM
MEG-01
  IC50: 4.6 µM
KP-N-YS
  IC50: 7.6 µM
BE-13
  IC50: > 10.2 µM
MOLT-16
  IC50: > 10.2 µM
SCC-15
  IC50: > 10.2 µM
NKM-1
  IC50: > 10.2 µM
BV-173
  IC50: > 10.2 µM
SNU1
  IC50: > 10.2 µM
LB771-HNC
  IC50: 3.25 µM
GI-1
  IC50: 7.9 µM
HCC2218
  IC50: > 10.2 µM
no-11
  IC50: > 10.2 µM
DB
  IC50: 6.68 µM
MZ2-MEL
  IC50: 4.42 µM
TE-1
  IC50: > 10.2 µM
IST-SL1
  IC50: > 10.2 µM
EW-3
  IC50: > 10.2 µM
ML-2
  IC50: > 10.2 µM
TE-6
  IC50: > 10.2 µM
NCI-H1395
  IC50: > 10.2 µM
COLO-829
  IC50: > 10.2 µM
DMS-114
  IC50: > 10.2 µM
U-87 MG
  IC50: > 10.2 µM
OMC-1
  IC50: > 10.2 µM
SK-UT-1
  IC50: > 10.2 µM
OCI-AML2
  IC50: 5.77 µM
SW872
  IC50: 10.2 µM
MV4-11
  IC50: 5.51 µM
HAL-01
  IC50: 9.16 µM
A704
  IC50: > 10.2 µM
L-363
  IC50: 6.66 µM
BT-474
  IC50: > 10.2 µM
SK-NEP-1
  IC50: > 10.2 µM
KU812 cell line
  IC50: 0.637 µM
BB65-RCC
  IC50: 7.84 µM
J-RT3-T3-5
  IC50: > 10.2 µM
EW-13
  IC50: 0.413 µM
D-502MG
  IC50: > 10.2 µM
KE-37
  IC50: 9.31 µM
JAR
  IC50: > 10.2 µM
ETK-1
  IC50: > 10.2 µM
HT
  IC50: > 10.2 µM
